The assay concerns Endogenous Huntingtin Protein. Put plainly: Endogenous Huntingtin Protein Assay (ELISA-based MSD electrochemiluminescence). It counts as cell-based. As to conditions: Table 2; MSD plates coated with MW1 (expanded polyglutamine) or MAB2166 capture antibody; "inactive" = result above the detection limit of the assay. Summed up:
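Endogenous huntingtin measured on MSD plates coated with MW1 (polyglutamine-expanded) or MAB2166 capture antibody; lysates bound overnight at 4 °C. Signal developed with #56565 rabbit monoclonal and goat anti-rabbit SULFO-TAG (0.25 µg/mL, 1 h RT each), electrochemiluminescence read on SI 6000.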
By IC50 is commonly meant the midpoint of a concentration-inhibition curve. Higher therefore signals a need for much substance. In turn, `Cc1nc2c(C)cc(-c3ccc(-c4cnc(N5C[C@@H](C)N[C@@H](C)C5)nn4)c(O)c3)nn2n1` [Cpd 83, 2-{3-[(3R,5S)-3,5-dimethylpiperazin-1-yl]-1,2,4-triazin-6-yl}-5-(2,8-dimethyl[1,2,4]triazolo[1,5-b]pyridazin-6-yl)phenol] had an IC50 of 5.6 nM.

`C=C[C@H]1CN(c2ncc(-c3ccc(-c4cn[nH]c4)cc3O)nn2)C[C@@H](C)N1` [Cpd 249, 2-{3-[(3S,5R)-3-ethenyl-5-methylpiperazin-1-yl]-1,2,4-triazin-6-yl]-5-(1H-pyrazol-4-yl)phenol] showed an IC50 of 319 nM.

For the compound `Oc1cc(-n2nccn2)ccc1-c1cnc(N2CCN[C@@H](C3CC3)C2)nn1` [Cpd 11, 2-{3-[(3S)-3-cyclopropylpiperazin-1-yl]-1,2,4-triazin-6-yl}-5-(2H-1,2,3-triazol-2-yl)phenol], the IC50 amounted to 9.6 nM.

For `COc1cc(-c2ccc(-c3cnc(N4C[C@@H](C(C)C)N[C@@H](C)C4)nn3)c(O)c2)ncn1` [Cpd 227, 5-(6-methoxypyrimidin-4-yl)-2-{3-[(3S,5R)-3-methyl-5-(propan-2-yl)piperazin-1-yl]-1,2,4-triazin-6-yl}phenol], the IC50 came out at 37.3 nM. For `C[C@@H]1CN(c2ncc(-c3ccc(-c4cn[nH]c4)cc3O)nn2)C[C@H](C(C)(C)C)N1` [Cpd 247, 2-{3-[(3S,5R)-3-tert-butyl-5-methylpiperazin-1-yl]-1,2,4-triazin-6-yl]-5-(1H-pyrazol-4-yl)phenol] the value was 201 nM; for `CC(C)[C@H]1CN(c2ncc(-c3ccc(-c4cn5ccnc5cn4)cc3O)nn2)CCN1` [Cpd 113, 5-(imidazo[1,2-a]pyrazin-6-yl)-2-{3-[(3S)-3-(propan-2-yl)piperazin-1-yl]-1,2,4-triazin-6-yl}phenol], 36 nM; for `Oc1cc(-c2cn[nH]c2)ccc1-c1cnc(N2CCNC(C3CC3(F)F)C2)nn1` (stereo not drawn) [Cpd 36, 2-{3-[3-(2,2-dilluorocyclopropyl)piperazin-1-yl]-1,2,4-triazin-6-yl}-5-(1H-pyrazol-4-yl)phenol], 47.7 nM. The compound `CC[C@H]1CN(c2ncc(-c3ccc(-c4cn[nH]c4)cc3O)nn2)C[C@@H](C)N1` (racemic) [Cpd 148, 2-{3-[rac-(3S,5R)-3-ethyl-5-methylpiperazin-1-yl]-1,2,4-triazin-6-yl}-5-(1H-pyrazol-4-yl)phenol] displayed an IC50 of 53.4 nM. For `C[C@H]1CN(c2ncc(-c3ccc(-c4cn[nH]c4)cc3O)nn2)CCN1` [Cpd 165, 2-{3-[(3S)-3-methylpiperazin-1-yl]-1,2,4-triazin-6-yl}-5-(1H-pyrazol-4-yl)phenol] the value was 124 nM; for `CC(C)[C@H]1CN(c2ncc(-c3ccc(-c4nnc(C5CC5)o4)cc3O)nn2)CCN1` [Cpd 199, 5-(5-cyclopropyl-1,3,4-oxadiazol-2-yl)-2-{3-[(3S)-3-(propan-2-yl)piperazin-1-yl]-1,2,4-triazin-6-yl}phenol], 526 nM. `Cc1nc(-c2ccc(-c3cnc(N4CCN[C@@H](C5CC5)C4)nn3)c(O)c2)cs1` [Cpd 246, 2-{3-[(3S)-3-cyclopropylpiperazin-1-yl]-1,2,4-triazin-6-yl}-5-(2-methyl-1,3-thiazol-4-yl)phenol] displayed an IC50 of 28.4 nM. The figure for `Oc1cc(-c2cn[nH]c2)ccc1-c1cnc(N2CCN[C@@H](C3CC3)C2)nn1` [Cpd 137, 2-{3-[(3S)-3-cyclopropylpiperazin-1-yl]-1,2,4-triazin-6-yl}-5-(1H-pyrazol-4-yl)phenol] is 7.5 nM; for `Cc1nc2c(C3CC3)nc(-c3ccc(-c4cnc(N5C[C@@H](C)N[C@@H](C)C5)nn4)c(O)c3)cn2n1` [Cpd 109, 5-(8-cyclopropyl-2-methyl[1,2,4]triazolo[1,5-a]pyrazin-6-yl)-2-{3-[(3R,5S)-3,5-dimethylpiperazin-1-yl]-1,2,4-triazin-6-yl}phenol] it is 22.1 nM. For `CC(C)[C@H]1CN(c2ncc(-c3ccc(-c4ncn(C)n4)cc3O)nn2)CCN1` [Cpd 259, 5-(1-methyl-1H-1,2,4-triazol-3-yl)-2-{3-[(3S)-3-(propan-2-yl)piperazin-1-yl]-1,2,4-triazin-6-yl}phenol] the value was 338 nM; for `CC(C)[C@H]1CN(c2ncc(-c3ccc(-c4ncc(F)s4)cc3O)nn2)CCN1` [Cpd 196, 5-(5-fluoro-1,3-thiazol-2-yl)-2-{3-[(3S)-3-(propan-2-yl)piperazin-1-yl]-1,2,4-triazin-6-yl}phenol], 492 nM. The figure for `Cc1cn2cc(-c3ccc(-c4cnc(N5C[C@@H](C)N(C)[C@@H](C)C5)nn4)c(O)c3)cc(F)c2n1` [Cpd 94, 5-(8-fluoro-2-methylimidazo[1,2-a]pyridin-6-yl)-2-{3-[(3R,5S)-3,4,5-trimethylpiperazin-1-yl]-1,2,4-triazin-6-yl}phenol] is 8.3 nM; for `CC(C)[C@H]1CN(c2ncc(-c3ccc(-c4cnn5ccccc45)cc3O)nn2)CCN1` [Cpd 244, 2-{3-[(3S)-3-(propan-2-yl)piperazin-1-yl]-1,2,4-triazin-6-yl}-5-(pyrazolo[1,5-a]pyridin-3-yl)phenol] it is 382 nM. `CC(C)[C@H]1CN(c2ncc(-c3ccc(-c4cnc5nsnc5c4)cc3O)nn2)CCN1` [Cpd 264, 2-{3-[(3S)-3-(propan-2-yl)piperazin-1-yl]-1,2,4-triazin-6-yl}-5-([1,2,5]thiadiazolo[3,4-b]pyridin-6-yl)phenol] showed an IC50 of 125 nM. The figure for `Oc1cc(-c2cn[nH]c2)ccc1-c1cnc(N2CCN3CCCCC3C2)nn1` (stereo not drawn) [Cpd 203, 2-[3-(octahydro-2H-pyrido[1,2-a]pyrazin-2-yl)-1,2,4-triazin-6-yl]-5-(1H-pyrazol-4-yl)phenol] is 42.5 nM; for `CC(C)[C@H]1CN(c2ncc(-c3ccc(-c4cc(F)c5nn(C)cc5c4)cc3O)nn2)CCN1` [Cpd 81, 5-(7-fluoro-2-methyl-2H-indazol-5-yl)-2-{3-[(3S)-3-(propan-2-yl)piperazin-1-yl]-1,2,4-triazin-6-yl}phenol] it is 5.4 nM. For `C[C@@H]1CN[C@@H](C)CN1c1ncc(-c2ccc(-c3cn[nH]c3)cc2O)nn1` (single isomer, unassigned) [Cpd 190, 2-{3-[(2R,5S)-2,5-dimethylpiperazin-1-yl]-1,2,4-triazin-6-yl}-5-(1H-pyrazol-4-yl)phenol or 2-{3-[(2S,5R)-2,5-dimethylpiperazin-1-yl]-1,2,4-triazin-6-yl}-5-(1H-pyrazol-4-yl)phenol] the value was 166 nM; for `Cc1nc2cnc(-c3ccc(-c4cnc(N5CCN[C@@H](C(C)C)C5)nn4)c(O)c3)cn2n1` [Cpd 91, 5-(2-methyl[1,2,4]triazolo[1,5-a]pyrazin-6-yl)-2-{3-[(3S)-3-(propan-2-yl)piperazin-1-yl]-1,2,4-triazin-6-yl}phenol], 7.3 nM; for `C[C@@H]1CN(c2ncc(-c3ccc(-c4cn[nH]c4)cc3O)nn2)C[C@H](C2CCC2)N1` [Cpd 231, 2-{3-[(3S,5R)-3-cyclobutyl-5-methylpiperazin-1-yl]-1,2,4-triazin-6-yl}-5-(1H-pyrazol-4-yl)phenol], 21.9 nM. For `Cc1cn2nc(-c3ccc(-c4cnc(N5CCN(C)CC5)nn4)c(O)c3)ccc2n1` [Cpd 82, 5-(2-methylimidazo[1,2-b]pyridazin-6-yl)-2-[3-(4-methylpiperazin-1-yl)-1,2,4-triazin-6-yl]phenol] the value was 5.5 nM; for `Cc1cn2cc(-c3ccc(-c4cnc(N5CCN[C@@H](C(C)C)C5)nn4)c(O)c3)cc(C)c2n1` [Cpd 131, 5-(2,8-dimethylimidazo[1,2-a]pyridin-6-yl)-2-{3-[(3S)-3-(propan-2-yl)piperazin-1-yl]-1,2,4-triazin-6-yl}phenol], 7.6 nM. Consider `Cc1nc2cnc(-c3ccc(-c4cnc(N5C[C@@H](C)N[C@@H](C)C5)nn4)c(O)c3)cn2n1` [Cpd 106, 2-{3-[(3R,5S)-3,5-dimethylpiperazin-1-yl]-1,2,4-triazin-6-yl}-5-(2-methyl[1,2,4]triazolo[1,5-a]pyrazin-6-yl)phenol], for which the IC50 is 16.5 nM. The figure for `CC[C@H]1CN(c2ncc(-c3ccc(-c4cn[nH]c4)cc3O)nn2)CCN1` [Cpd 23, 2-{3-[(3S)-3-ethylpiperazin-1-yl]-1,2,4-triazin-6-yl}-5-(1H-pyrazol-4-yl)phenol] is 22.7 nM; for `CC(C)C1CN(c2ncc(-c3ccc(-c4cc(F)c5nn(C)cc5c4)cc3O)nn2)CCN1` (stereo not drawn) [Cpd 71, 5-(7-fluoro-2-methyl-2H-indazol-5-yl)-2-{3-[3-(propan-2-yl)piperazin-1-yl]-1,2,4-triazin-6-yl}phenol] it is 4 nM. For `Oc1cc(-c2c[nH]nc2Cl)ccc1-c1cnc(N2CCN[C@@H](C3CC3)C2)nn1` [Cpd 163, 5-(3-chloro-1H-pyrazol-4-yl)-2-{3-[(3S)-3-cyclopropylpiperazin-1-yl]-1,2,4-triazin-6-yl}phenol] the value was 4.2 nM; for `Oc1cc(-c2cn[nH]c2)ccc1-c1cnc(N2CCNC(c3ccncc3)C2)nn1` (stereo not drawn) [Cpd 62, 5-(1H-pyrazol-4-yl)-2-{3-[3-(pyridin-4-yl)piperazin-1-yl]-1,2,4-triazin-6-yl}phenol], 2390 nM; for `Oc1cc(-c2ncsn2)ccc1-c1cnc(N2CCN[C@@H](C3CC3)C2)nn1` [Cpd 213, 2-{3-[(3S)-3-cyclopropylpiperazin-1-yl]-1,2,4-triazin-6-yl]-5-(1,2,4-thiadiazol-3-yl)phenol], 7.7 nM. Consider `CC(C)(O)C1CN(c2ncc(-c3ccc(-c4cn[nH]c4)cc3O)nn2)CCN1` (stereo not drawn) [Cpd 13, 2-{3-[3-(2-hydroxypropan-2-yl)piperazin-1-yl]-1,2,4-triazin-6-yl}-5-(1H-pyrazol-4-yl)phenol], for which the concentration for half-maximal inhibition (IC50) turned out to be 11.4 nM. For `Oc1cc(-c2ccncn2)ccc1-c1cnc(N2CCN[C@@H](C3CC3)C2)nn1` [Cpd 192, 2-{3-[(3S)-3-cyclopropylpiperazin-1-yl]-1,2,4-triazin-6-yl}-5-(pyrimidin-4-yl)phenol] the value was 34.2 nM.

These data come from patent publication US20230234942A1, “COMPOUNDS FOR TREATING HUNTINGTON'S DISEASE” (PTC Therapeutics, Inc., priority 2020, published 2023).
